Laboratory results as given in PMC5701053, “Multicomponent mapping of boron chemotypes furnishes selective enzyme inhibitors” (Nature Communications, 2017).

Assays:
[1] = molecular target: T1, α/β-hydrolase domain 3 (ABHD3) (Homo sapiens, UniProt Q8WU67); test: competitive gel-based ABPP (FP-rhodamine) in HEK […] lysate overexpressing human ABHD3; also in situ (IC50 […]) and ABPP-SILAC in SW620 cells; assay type: biochemical
T1 sequence (Q8WU67 1-409): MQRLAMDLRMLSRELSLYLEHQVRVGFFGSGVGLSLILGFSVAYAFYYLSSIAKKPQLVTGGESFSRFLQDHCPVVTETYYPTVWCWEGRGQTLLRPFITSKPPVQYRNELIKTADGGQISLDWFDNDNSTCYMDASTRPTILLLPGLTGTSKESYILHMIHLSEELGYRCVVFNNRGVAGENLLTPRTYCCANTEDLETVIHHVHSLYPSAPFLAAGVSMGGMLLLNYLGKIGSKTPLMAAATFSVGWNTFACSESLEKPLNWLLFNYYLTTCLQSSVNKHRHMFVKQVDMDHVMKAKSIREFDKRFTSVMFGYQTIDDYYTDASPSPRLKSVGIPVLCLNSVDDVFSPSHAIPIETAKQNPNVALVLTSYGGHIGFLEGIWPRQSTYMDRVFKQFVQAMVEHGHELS

[2] = molecular target: T1, α/β-hydrolase domain 3 (ABHD3); test: competitive gel-based ABPP (mouse brain proteome; follow-up in HEK […] lysates expressing ABHD3); assay type: cell-based

| IC50 [1] [nM] | SMILES | competitive gel-based ABPP (mouse brain proteome); follow-up in HEK 293T lysates [2] |
| --- | --- | --- |
| 140 | C[N+]12CC(=O)O[B-]1(CC(C#N)N(Cc1ccc(F)cc1Cl)C(=O)c1ccccc1)OC(=O)C2 (racemic) [4j] |  |
|  | Cc1ccc(CN(C(=O)c2ccccc2)C(C#N)C[B-]23OC(=O)C[N+]2(C)CC(=O)O3)cc1 (stereo not drawn) [4g] | Compound 4j appears equipotent with compounds 4h and 4g against ABHD3, but is more selective against ABHD10. |
|  | C[N+]12CC(=O)O[B-]1(CC(C#N)N(Cc1ccccc1Cl)C(=O)c1ccccc1)OC(=O)C2 (stereo not drawn) [4h] | Compound 4j appears equipotent with compounds 4h and 4g against ABHD3, but is more selective against ABHD10. |
